Assays:
PC3 cells = assay: Cell proliferation/viability assay, PC3 (Alamar blue); format: cell-based; conditions: Homo sapiens; PC-3, Alamar blue; read-out: Cellular Proliferation/Viability IC50 (μM) PC-3
Method: (§1) Cell proliferation/viability was measured in LNCaP and PC3 cells with Alamar blue, and proliferation was measured in LN-CaP95 cells with BrdU incorporation. In LNCaP cells, AR specific proliferation is calculated by measuring the difference between control cells treated with or without 0.1 nM R1881.

LNCaP cells = assay: Cell proliferation/viability assay, LNCaP (Alamar blue); format: cell-based; conditions: Homo sapiens, AR specific proliferation with 0.1 nM R1881, read-out: Cellular Proliferation/Viability IC50 (μM) LNCaP
Method: as §1

[1] = target: T1, LBD of progesterone receptor-beta (PRβ) fused to DBD of GAL4 (Homo sapiens, UniProt P06401); assay: LBD-expressing reporter assay (GeneBLAzer), PR LBD; format: cell-based; conditions: inhibition of maximal activity attained with agonist; read-out: Steroid Receptor LBD IC50 (μM) PR
T1 sequence (P06401 679-913 limits assumed): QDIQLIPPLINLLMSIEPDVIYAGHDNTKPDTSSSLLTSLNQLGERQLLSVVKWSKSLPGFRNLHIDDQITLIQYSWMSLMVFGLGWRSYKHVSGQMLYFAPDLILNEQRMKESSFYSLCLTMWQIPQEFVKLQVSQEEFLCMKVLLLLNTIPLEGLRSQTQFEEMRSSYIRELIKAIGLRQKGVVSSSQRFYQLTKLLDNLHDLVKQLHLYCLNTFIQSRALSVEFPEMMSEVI
Text: (§2) This assay uses cells that stably express a chimera fusion protein comprising the LBD of a steroid hormone receptor fused to the DNA-binding domain (DBD) of GAL4 along with beta-lactamase reporter under transcriptional control of an upstream activator sequence (UAS). When agonist binds to the LBD of the GAL4 (DBD)-steroid hormone (LBD) chimera fusion protein, the protein binds to the UAS, resulting in expression of beta-lactamase. LBDs of androgen receptor (AR), progesterone receptor-beta (PRβ), glucocorticoid receptor (GR), estrogen receptor-α (ERα), and estrogen receptor-β (ERβ) were tested and IC50s calculated for inhibiting maximal activity attained with agonist.

LN-CaP95 cells = assay: Cell proliferation assay, LNCaP95 (BrdU incorporation); format: cell-based; conditions: LNCaP-95, read-out: Cellular Proliferation/Viability IC50 (μM) LNCaP95
Method: as §1

[2] = target: T2, LBD of estrogen receptor-α (ERα) fused to DBD of GAL4 (Homo sapiens, UniProt P03372); assay: LBD-expressing reporter assay (GeneBLAzer), ERα LBD; format: cell-based; conditions: inhibition of maximal activity attained with agonist; read-out: Steroid Receptor LBD IC50 (μM) ERα
T2 sequence (P03372 311-547 limits assumed): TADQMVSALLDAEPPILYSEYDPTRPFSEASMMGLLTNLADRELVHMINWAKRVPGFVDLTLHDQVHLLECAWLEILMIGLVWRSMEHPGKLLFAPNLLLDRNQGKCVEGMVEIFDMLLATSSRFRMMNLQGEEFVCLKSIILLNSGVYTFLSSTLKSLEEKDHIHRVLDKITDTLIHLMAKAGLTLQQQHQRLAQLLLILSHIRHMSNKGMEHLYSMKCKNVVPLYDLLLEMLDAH
Text: as §2

[3] = target: LBD of estrogen receptor-β (ERβ) fused to DBD of GAL4 (Homo sapiens, UniProt Q92731); assay: LBD-expressing reporter assay (GeneBLAzer), ERβ LBD; format: cell-based; conditions: inhibition of maximal activity attained with agonist; read-out: Steroid Receptor LBD IC50 (μM) ERβ
Chain of LBD of estrogen receptor-β (ERβ) fused to DBD of GAL4 (Q92731 264-498 limits assumed): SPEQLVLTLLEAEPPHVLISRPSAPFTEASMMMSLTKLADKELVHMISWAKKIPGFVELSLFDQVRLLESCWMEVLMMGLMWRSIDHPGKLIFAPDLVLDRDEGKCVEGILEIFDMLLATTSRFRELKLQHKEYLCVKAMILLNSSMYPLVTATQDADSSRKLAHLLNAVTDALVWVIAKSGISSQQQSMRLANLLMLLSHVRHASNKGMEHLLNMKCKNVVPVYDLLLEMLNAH
Text: as §2, with “To assess if the representative compounds (Compounds A13, A28, A38, A74, A93, and A109) compete with ligand (agonist) for the ligand-binding domain (LBD) of steroid hormone receptors (which would be off-target), the GeneBLAzer assay was employed (Thermo Fisher). This” for “This”

[4] = target: T3, LBD of glucocorticoid receptor (GR) fused to DBD of GAL4 (Homo sapiens, UniProt P04150); assay: LBD-expressing reporter assay (GeneBLAzer), GR LBD; format: cell-based; conditions: inhibition of maximal activity attained with agonist; read-out: Steroid Receptor LBD IC50 (μM) GR
T3 sequence (P04150 524-758 limits assumed): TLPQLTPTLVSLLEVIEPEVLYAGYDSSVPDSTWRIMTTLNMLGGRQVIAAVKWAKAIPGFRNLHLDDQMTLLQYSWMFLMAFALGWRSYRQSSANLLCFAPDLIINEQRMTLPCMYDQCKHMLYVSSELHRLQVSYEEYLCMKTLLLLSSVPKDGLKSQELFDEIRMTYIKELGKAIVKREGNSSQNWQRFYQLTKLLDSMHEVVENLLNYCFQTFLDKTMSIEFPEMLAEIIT
Text: as §2

[5] = Microsomal stability assay, dog liver microsomes; format: in vitro ADME; conditions: pH 7.4, read-out: Liver microsome T½ (min) Dog
Method: (§3) Microsomal stability assay is a widely used in vitro model to characterize the metabolic conversion by phase I enzymes, such as cytochrome P450 (CYP) enzymes. Since metabolism is known to be highly variable in different species, microsomal stability assay is commonly run in multiple species. Metabolic stability of testing compound can be evaluated using human, rat, mouse, or other animal liver or intestine microsomes to predict intrinsic clearance.
(§4) The assay was carried out in 96-well microtiter plates at 37° C. Reaction mixtures (25 μL) contained a final concentration of 1 μM test compound, 0.5 mg/mL liver microsomes protein, and 1 mM NADPH and/or 1 mM UDPGA (with alamethicin) in 100 mM potassium phosphate, pH 7.4 buffer with 3 mM MgCl2. The incubation was done with N=1, but duplicate incubation at each time point can be prepared if necessary. At each of the time points (for example, 0, 15, 30, and 60 minutes), 150 μL of quench solution (100% acetonitrile with 0.1% formic acid) with internal standard was transferred to each well. Besides the zero minute controls, mixtures containing the same components except the NADPH can also be prepared as the negative control. Verapamil was included as a positive control to verify assay performance. Plates were sealed, vortexed, and centrifuged at 4° C. for 15 minutes at 4000 rpm. The supernatant is transferred to fresh plates for LC/MS/MS analysis.
(§5) Summarized conditions: [Compound]=[…], [LM]=0.5 mg/mL, [NADPH]=1 mM and/or [UDPGA]=1 mM, Buffer=100 mM Potassium Phosphate, pH 7.4 with 3 mM MgCl2, Time=0, 15, 30, and 60 min, and Temperature=37° C.
(§6) All samples were analyzed on LC/MS/MS using an AB Sciex API 4000 instrument, coupled to a Shimadzu LC-20AD LC Pump system. Analytical samples were separated using a Waters Atlantis T3 dC18 reverse phase HPLC column (20 mm×2.1 mm) at a flow rate of 0.5 mL/min. The mobile phase consisted of 0.1% formic acid in water (solvent A) and 0.1% formic acid in 100% acetonitrile (solvent B).
(§7) The extent of metabolism is calculated as the disappearance of the test compound, compared to the 0-min time incubation. Initial rates are calculated for the compound concentration and used to determine half-life (t½) values and subsequently, the intrinsic clearance (Clint). Clint=(0.693)(1/t½ (min))(g of liver/kg of body weight)(mL incubation/mg of microsomal protein)(45 mg of microsomal protein/g of liver weight)

[6] = Microsomal stability assay, rat liver microsomes; format: in vitro ADME; conditions: pH 7.4, read-out: Liver microsome T½ (min) Rat
Method: as §3, §4, §5, §6, §7

[7] = Hepatocyte stability assay, human hepatocytes; format: in vitro ADME; conditions: cryopreserved hepatocytes, read-out: Hepatocytes T½ (min) Human
Text: The […] of in vitro intrinsic clearance (Clint) for drug candidates in the early discovery stage is common practice in the pharmaceutical industry. The Clint values of drug candidates can help to confirm whether metabolism is the main clearance pathway when it is compared with the total body clearance in vivo. Hepatocytes are among the routinely used in vitro systems for measuring clearance. Hepatocytes have been reported to retain most of the phase I and phase II metabolic activities, and therefore, it is a useful tool to estimate the intrinsic clearance for potential drug candidates.
Metabolic stability of testing compound were be evaluated using human and mouse hepatocytes and can also be use rat, mouse, or other animal hepatocytes to predict intrinsic clearance. Cryopreserved hepatocytes were removed from the liquid nitrogen tank and thawed in a 37° C. water bath. As soon as the cells pulled away from the vial wall, they were decanted into 48 ml of warm HT medium. Cells were centrifuged for four minutes at 420 rpm (50 g). After removing the supernatant, pellet was re-suspended in warm DMEM medium. Cell density was counted by a hemacytometer.
The assay was carried out in 96-well microtiter plates. Compounds were incubated for 0, 60, 120, and 180 minutes at 37° C. with hepatocytes. Reaction mixtures (50 μL) contained a final concentration of 1 μM test compound, 0.5 million cells/mL hepatocytes in the DMEM medium. At each of the time points (for example, 0, 1, 2, and 3 hours), 200 μL of quench solution (100% acetonitrile with 0.1% formic acid) with internal standard was transferred to each well. Midazolam was included as a positive control to verify assay performance. Plates were sealed and centrifuged at 4° C. for 15 minutes at 4000 rpm. The supernatant is transferred to fresh plates for LC/MS/MS analysis.
Summarized conditions (customizable): [Compound]=[…], Positive control: midazolam and/or naloxone, [Hepatocyte]=0.5 million cells/Ml, time=0, 60, 120, and 180 min, t=37° C.
as §6
The extent of metabolism was calculated as the disappearance of the test compound, compared to the 0-min control reaction incubations. Initial rates were calculated for the compound concentration and used to determine t½ values and subsequently, the intrinsic clearance, Clint. Clint=(0.693)(1/t½(min))(mL incubation/million cells)

[8] = Microsomal stability assay, monkey liver microsomes; format: in vitro ADME; conditions: pH 7.4, read-out: Liver microsome T½ (min) Monkey
Method: as §3, §4, §5, §6, §7

[9] = Microsomal stability assay, mouse liver microsomes; format: in vitro ADME; conditions: pH 7.4; mouse liver microsomes; read-out: Liver microsome T½ (min) Mouse
Procedure, shortened: (§8)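 Compound at 1 μM was incubated at 37° C with 0.5 mg/mL liver microsomes and 1 mM NADPH and/or 1 mM UDPGA (with alamethicin) in 100 mM potassium phosphate pH 7.4, 3 mM MgCl2. Samples were taken at 0, 15, 30 and 60 min and measured by LC/MS/MS. t½ came from compound loss relative to 0 min, and Clint was scaled with 45 mg microsomal protein/g liver.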

[10] = In vivo pharmacokinetics in plasma after oral gavage (PO) in male CD-1 mice; conditions: 5 mg/kg PO, Table 4
Method: The purpose of this study is to determine the pharmacokinetics of the tested compounds in plasma, following oral gavage administration (PO) to male CD-1 mice.
Animal Husbandry: Animals were group housed during acclimation and the study. The animal room environment were controlled (target conditions: temperature 18 to 26° C., relative humidity 30 to 70%, 12 hours artificial light and 12 hours dark). Temperature and relative humidity were monitored daily. Animals were fasted at least 12 hours prior to the administration. All animals had access to Certified Rodent Diet ad libitum 4 hours post dosing.
Dose Formulation: prepared 85-100 uL of a stock solution of representative compounds of the disclosure in DMSO at 50 mM; 1.5% v/v of Tween 80 were added and mixed gently; 95.5% v/v saline was added gently to the organic phase. The solution was mixed slowly by reverse pipetting to get a clear solution.
Dose Administration: the dose formulations were administered via oral gavage per facility SOPs. The dose volume were determined by the animals' body weight collected on the morning of dosing day
Sample Collection: blood collection (about 0.05 mL per time point) was performed from saphenous vein of each animal into polypropylene tubes at each timepoints (0, 0.25, 0.5, 1, 2, 4, 8, 12, and 24 hr). All blood samples were transferred into pre-chilled tubes containing 2 μL of K2-EDTA (0.5M) and placed on wet ice until centrifugation. Each collected blood sample was in the wet-ice before centrifugation. Each collected blood was under centrifugation for 15 minutes at 4° C. and 3000 g for plasma collection. Plasma samples were stored in polypropylene tubes, quickly frozen over dry ice and kept at −70±10° C. until LC/MS/MS analysis.
Bioanalytical analysis: A LC-MS/MS method for the quantitative determination of tested compound in biological matrix were developed under non-GLP compliance. A calibration curve with at least 7 non-zero calibration standards were applied for the method including LLOQ.
Plasma concentration versus time data were analyzed by non-compartmental approaches using the Phoenix WinNonlin 6.3 software program. Cl, Vdss, C0, Cmax, Tmax, T^1/2, AUC(0-t), AUC(0-inf), MRT(0-t), MRT(0-inf), % F (oral availability) and graphs of plasma concentration versus time profile were reported.

LNCaP tumors = assay: LNCaP xenografts model in castrated male NCG mice; format: in vivo; conditions: Table 4; extrapolated Cmin in efficacy
Method: Tumor growth was measured in male NCG mice bearing LNCaP tumors. Castration was performed when tumors reached ˜100 mm^3 and dosing (60 mg/kg PO qd) started 1 week after castration. […] Individual tumor volume change from baseline measured at the end of the experiment.

[11] = Microsomal stability assay, human liver microsomes; format: in vitro ADME; conditions: pH 7.4, read-out: Liver microsome T½ (min) Human
Procedure, shortened: as §8

Row | Compound | IC50 (PC3 cells) [µM] | IC50 (LNCaP cells) [µM] | IC50 [1] [µM] | IC50 (LN-CaP95 cells) [µM] | IC50 [2] [µM] | IC50 [3] [µM] | IC50 [4] [µM] | half-life at 1 μM [5] [min] | half-life at 1 μM [6] [min] | half-life at 1 μM [7] [min] | half-life at 1 μM [8] [min] | half-life at 1 μM [9] [min] | Cmin at 5 mg/kg PO [10] [µM] | Cmin at 5 mg/kg PO (LNCaP tumors) [µM] | half-life at 1 μM [11] [min]
1 | CC(C)(c1ccc(OC[C@H](O)CO)cc1)c1ccc(OC[C@H](O)CCl)cc1 [EPI-002, reference compound] | > 10 | 9 | > 10 | ~20 | > 10 | > 10 | > 10 |  |  |  |  |  |  |  | 
2 | CNC(=O)c1ccc(N2C(=S)N(c3ccc(C#N)c(C(F)(F)F)c3)C(=O)C2(C)C)cc1F [Enzalutamide, enzalutamide, reference compound] |  |  |  |  |  |  |  | > 120 | > 120 | > 360 | > 120 | > 120 | 3.80 | 22.8 | > 120

— patent US11059795B2, “Androgen receptor modulators and methods for their use” (ESSA Pharma, Inc., priority 2018, dated 2021)
